Assay results taken from patent EP0007672A1, “Isocyanoalkenes, process and useful intermediates for their preparation, pharmaceutical and fungicidal preparations containing those isocyanoalkenes and the use of the fungicidal preparations in agriculture” (GIST-BROCADES N.V., priority 1978, dated 1980).
Values after ≈ are worked out from the molar mass of the structure shown. Where two headings read alike, the source gives them in different places.

Legend:
Assay in all cases: MIC (Minimum Inhibitory Concentration)
Assay type in all cases: cell-based
Trichophyton tonsurans = Trichophyton tonsurans 561-50; read-out: MIC values
Source text: (§1) In addition they may be used for combatting plant diseases, in particular as fungicides. A list of MIC (Minimum Inhibitory Concentration) values for a number of microorganisms is listed herebelow. The figures in the column headings refer to the compounds prepared according to the experimental examples in comparison with the spectrum of 1-[2-(2,4-dichlorophenyl)-2-{(2,4-dichlorophenyl)-methoxy} -ethyl7-1H-imidazole (better known under the name of miconazole, c.f. Merck Index 9th Ed. page 6047) or natamycin (pimaricin, c.f. Merck Index 9th Ed. page 7233).

Trichophyton quickeaneum = Trichophyton quickeaneum A 2040; read-out: MIC values
Source text: as §1

[1] = system: Trichophyton soudanese joyeux; conditions: Trichophyton soudanese joyeux 440-63; read-out: MIC values
Source text: as §1

[2] = system: Trichophyton schoenleinii; conditions: Trichophyton schoenleinii 435-63; read-out: MIC values
Source text: as §1

Pasteurella multocida = conditions: read-out: MIC values
Source text: as §1

Trichophyton violoceum = Trichophyton violoceum 442-62; read-out: MIC values
Source text: as §1

Trichophyton equinum = system: Trichophyton equinum
Source text: as §1

[3] = system: Trichophyton mentagrophytus
Source text: as §1

Trichophyton rubrum = system: Trichophyton rubrum
Source text: as §1

Trichophyton verrucosum = system: Trichophyton verrucosum
Source text: as §1

Candida albicans = system: Candida albicans
Source text: as §1

[4] = Trichophyton equinum 182-76, read-out: MIC values
[5] = Trichophyton equinum 856-71, read-out: MIC values
[6] = Trichophyton mentagrophytus 367-68, read-out: MIC values
[7] = Trichophyton mentagrophytus 421-67, read-out: MIC values
[8] = Trichophyton mentagrophytus A 3252, read-out: MIC values
[9] = Trichophyton mentagrophytus R 177, read-out: MIC values
[10] = Trichophyton mentagrophytus R 178, read-out: MIC values
[11] = Trichophyton mentagrophytus RRL 305, read-out: MIC values
[12] = Trichophyton rubrum 218-65, read-out: MIC values
[13] = Trichophyton rubrum 494-62, read-out: MIC values
[14] = Trichophyton rubrum A 810, read-out: MIC values
[15] = Trichophyton verrucosum 134-66, read-out: MIC values
[16] = Trichophyton verrucosum A 2922, read-out: MIC values
[17] = Candida albicans A 7, read-out: MIC values
[18] = Candida albicans A 3140, read-out: MIC values
[19] = Candida albicans A 3141, read-out: MIC values
[20] = Candida albicans A 3144, read-out: MIC values
[21] = Candida albicans A 3145, read-out: MIC values
[22] = Candida albicans A 3165, read-out: MIC values
[23] = Candida albicans A 3166, read-out: MIC values
[24] = Candida albicans A 3167, read-out: MIC values
[25] = Candida albicans A 3168, read-out: MIC values
[26] = Candida albicans A 3169, read-out: MIC values
[27] = Candida albicans A 3171, read-out: MIC values
[28] = Candida albicans A 3190, read-out: MIC values
[29] = Candida albicans A 3191, read-out: MIC values
[30] = Candida albicans A 3194, read-out: MIC values
[31] = Candida albicans A 3196, read-out: MIC values

Structure (SMILES) | MIC (Trichophyton tonsurans) | MIC (Trichophyton quickeaneum) | MIC [1] | MIC [2] | MIC (Pasteurella multocida; Pasteurella multocida A 723) | MIC (Trichophyton violoceum) | MIC (Trichophyton equinum; [4]) | MIC (Trichophyton equinum; [5]) | MIC [3, 6] | MIC [3, 7] | MIC [3, 8] | MIC [3, 9] | MIC [3, 10] | MIC [3, 11] | MIC (Trichophyton rubrum; [12]) | MIC (Trichophyton rubrum; [13]) | MIC (Trichophyton rubrum; [14]) | MIC (Trichophyton verrucosum; [15]) | MIC (Trichophyton verrucosum; [16]) | MIC (Candida albicans; [17]) | other results
[C-]#[N+]C(=C(C)CC)S(=O)(=O)c1ccc(C)cc1 [Example 27a, 1-isocyano-2-methyl-1-(4-toluenesulphonyl)-1-butene] | 3 µg/mL (≈ 12 µM) | 0.1 µg/mL (≈ 0.401 µM) | 6 µg/mL (≈ 24.1 µM) | 6 µg/mL (≈ 24.1 µM) | 1.5 µg/mL (≈ 6.02 µM) | 12.5 µg/mL (≈ 50.1 µM) | 0.4 µg/mL (≈ 1.6 µM) | < 0.05 µg/mL | 6 µg/mL (≈ 24.1 µM) | 6 µg/mL (≈ 24.1 µM) | 6 µg/mL (≈ 24.1 µM) | 6 µg/mL (≈ 24.1 µM) | 6 µg/mL (≈ 24.1 µM) | 3 µg/mL (≈ 12 µM) | 0.4 µg/mL (≈ 1.6 µM) | 0.4 µg/mL (≈ 1.6 µM) | 0.4 µg/mL (≈ 1.6 µM) | 0.8 µg/mL (≈ 3.21 µM) | 6 µg/mL (≈ 24.1 µM) | 0.2 µg/mL (≈ 0.802 µM) | MIC (Candida albicans; [18]): 0.8 µg/mL (≈ 3.21 µM); MIC (Candida albicans; [19]): < 0.05 µg/mL; MIC (Candida albicans; [20]): 0.2 µg/mL (≈ 0.802 µM); MIC (Candida albicans; [21]): < 0.05 µg/mL; MIC (Candida albicans; [22]): 0.8 µg/mL (≈ 3.21 µM); MIC (Candida albicans; [23]): 3 µg/mL (≈ 12 µM); MIC (Candida albicans; [24]): 0.2 µg/mL (≈ 0.802 µM); MIC (Candida albicans; [25]): 0.2 µg/mL (≈ 0.802 µM); MIC (Candida albicans; [26]): 0.1 µg/mL (≈ 0.401 µM); MIC (Candida albicans; [27]): 0.2 µg/mL (≈ 0.802 µM); MIC (Candida albicans; [28]): < 0.05 µg/mL; MIC (Candida albicans; [29]): 0.1 µg/mL (≈ 0.401 µM); MIC (Candida albicans; [30]): < 0.05 µg/mL; MIC (Candida albicans; [31]): 0.4 µg/mL (≈ 1.6 µM)
[C-]#[N+]C(C(C)=CC)S(=O)(=O)c1ccc(C)cc1 (stereo not drawn) [Example 27b, 1-isocyano-2-methyl-l-(4-toluenesulphonyl)-2-butene] | 3 µg/mL (≈ 12 µM) | 1.5 µg/mL (≈ 6.02 µM) | 6 µg/mL (≈ 24.1 µM) | 6 µg/mL (≈ 24.1 µM) | 3 µg/mL (≈ 12 µM) | 6 µg/mL (≈ 24.1 µM) | 0.8 µg/mL (≈ 3.21 µM) | 0.4 µg/mL (≈ 1.6 µM) | 3 µg/mL (≈ 12 µM) | 3 µg/mL (≈ 12 µM) | 3 µg/mL (≈ 12 µM) | 6 µg/mL (≈ 24.1 µM) | 6 µg/mL (≈ 24.1 µM) | 3 µg/mL (≈ 12 µM) | 1.5 µg/mL (≈ 6.02 µM) | 0.8 µg/mL (≈ 3.21 µM) | 0.8 µg/mL (≈ 3.21 µM) | 1.5 µg/mL (≈ 6.02 µM) | 6 µg/mL (≈ 24.1 µM) | 0.4 µg/mL (≈ 1.6 µM) | MIC (Candida albicans; [18]): 0.8 µg/mL (≈ 3.21 µM); MIC (Candida albicans; [19]): < 0.05 µg/mL; MIC (Candida albicans; [20]): 0.4 µg/mL (≈ 1.6 µM); MIC (Candida albicans; [21]): < 0.05 µg/mL; MIC (Candida albicans; [22]): 1.5 µg/mL (≈ 6.02 µM); MIC (Candida albicans; [23]): 3 µg/mL (≈ 12 µM); MIC (Candida albicans; [24]): 0.4 µg/mL (≈ 1.6 µM); MIC (Candida albicans; [25]): 0.4 µg/mL (≈ 1.6 µM); MIC (Candida albicans; [26]): 0.4 µg/mL (≈ 1.6 µM); MIC (Candida albicans; [27]): 0.4 µg/mL (≈ 1.6 µM); MIC (Candida albicans; [28]): 0.1 µg/mL (≈ 0.401 µM); MIC (Candida albicans; [29]): 0.2 µg/mL (≈ 0.802 µM); MIC (Candida albicans; [30]): 0.4 µg/mL (≈ 1.6 µM); MIC (Candida albicans; [31]): 0.4 µg/mL (≈ 1.6 µM)
Clc1ccc(COC(Cn2ccnc2)c2ccc(Cl)cc2Cl)c(Cl)c1 (stereo not shown) [miconazole, reference compound] | 0.1 µg/mL (≈ 0.24 µM) | 0.1 µg/mL (≈ 0.24 µM) | 1.5 µg/mL (≈ 3.6 µM) | 0.2 µg/mL (≈ 0.481 µM) |  | 0.8 µg/mL (≈ 1.92 µM) | 0.4 µg/mL (≈ 0.961 µM) | < 0.05 µg/mL | 3 µg/mL (≈ 7.21 µM) | 0.2 µg/mL (≈ 0.481 µM) | 0.4 µg/mL (≈ 0.961 µM) | 0.4 µg/mL (≈ 0.961 µM) | 25 µg/mL (≈ 60.1 µM) | 0.4 µg/mL (≈ 0.961 µM) | 0.1 µg/mL (≈ 0.24 µM) | 0.8 µg/mL (≈ 1.92 µM) | 0.8 µg/mL (≈ 1.92 µM) | 0.8 µg/mL (≈ 1.92 µM) | 0.8 µg/mL (≈ 1.92 µM) |  | MIC (Pasteurella multocida; Pasteurella multocida): > 100 µg/mL; MIC (Candida albicans; read-out: MIC values, Candida albicans A 7): 0.2 µg/mL (≈ 0.481 µM); MIC (Candida albicans; read-out: MIC values, Candida albicans A 3140): 0.1 µg/mL (≈ 0.24 µM); MIC (Candida albicans; read-out: MIC values, Candida albicans A 3141): < 0.05 µg/mL; MIC (Candida albicans; read-out: MIC values, Candida albicans A 3144): 0.8 µg/mL (≈ 1.92 µM); MIC (Candida albicans; read-out: MIC values, Candida albicans A 3145): < 0.05 µg/mL; MIC (Candida albicans; read-out: MIC values, Candida albicans A 3165): 0.2 µg/mL (≈ 0.481 µM); MIC (Candida albicans; read-out: MIC values, Candida albicans A 3167): < 0.05 µg/mL; MIC (Candida albicans; read-out: MIC values, Candida albicans A 3168): 100 µg/mL (≈ 240 µM); MIC (Candida albicans; read-out: MIC values, Candida albicans A 3169): 1.5 µg/mL (≈ 3.6 µM); MIC (Candida albicans; read-out: MIC values, Candida albicans A 3171): < 0.05 µg/mL; MIC (Candida albicans; read-out: MIC values, Candida albicans A 3190): < 0.05 µg/mL; MIC (Candida albicans; read-out: MIC values, Candida albicans A 3191): < 0.05 µg/mL; MIC (Candida albicans; read-out: MIC values, Candida albicans A 3194): 0.2 µg/mL (≈ 0.481 µM)
